# Experimental data as given in ChEMBL document CHEMBL1221362, “Dialkylaminoalkyl derivatives of bicyclic compounds with antiplasmodial activity” (Bioorg Med Chem, 2010).
# Test system: Plasmodium falciparum
# Experiment: Antiplasmodial activity against Plasmodium falciparum K1 infected in human blood by [3H]hypoxanthine incorporation assay
# Assay type: functional, organism-based
# Details: not given
row,IC50 [nM],SMILES
1,110,O=C(CN1CCCC1)NC1CC2(N3CCCCC3)CC(c3ccccc3)C1C(c1ccccc1)C2 (stereo unspecified)
2,1070,CN(C)C12CCN(C(=O)CCN3CCCCC3)C(C(c3ccccc3)C1)C(c1ccccc1)C2 (racemic)
3,360,O=C(CCN1CCCCC1)N1CCC2(N3CCCC3)CC(c3ccccc3)C1C(c1ccccc1)C2 (racemic)
4,190,O=C(CCN1CCCCC1)N1CCC2(N3CCCCC3)CC(c3ccccc3)C1C(c1ccccc1)C2 (racemic)
5,340,CCN1CCN(CCN2CCC3(N(C)C)CC(c4ccccc4)C2C(c2ccccc2)C3)CC1 (racemic)
6,180,CCN1CCN(CCN2CCC3(N4CCCC4)CC(c4ccccc4)C2C(c2ccccc2)C3)CC1 (racemic)
7,140,CCN1CCN(CCN2CCC3(N4CCCCC4)CC(c4ccccc4)C2C(c2ccccc2)C3)CC1 (racemic)
8,360,CN(C)C12CCN(CCCN3CCCCC3)C(C(c3ccccc3)C1)C(c1ccccc1)C2 (racemic)
9,100,c1ccc(C2CC3(N4CCCC4)CCN(CCCN4CCCCC4)C2C(c2ccccc2)C3)cc1 (racemic)
10,120,c1ccc(C2CC3(N4CCCCC4)CCN(CCCN4CCCCC4)C2C(c2ccccc2)C3)cc1 (racemic)

row,SMILES,IC50 [nM]
1,C[C@@H]1CC[C@H]2[C@@H](C)C(=O)O[C@@H]3O[C@@]4(C)CC[C@@H]1[C@]32OO4 [ARTEMISININ],6.4

# Test system: Mus musculus
# Experiment: Toxicity in albino mouse assessed as mean survival days at 50 mg/kg, ip for 4 days
# Assay type: organism-based
# Parameters: dose 50 mg/kg, route intraperitoneal
# Details: in vivo, 96 h
row,SMILES,MSD [days]
1,O=C(CCN1CCCCC1)N1CCC2(N3CCCCC3)CC(c3ccccc3)C1C(c1ccccc1)C2 (racemic),6
2,c1ccc(C2CC3(N4CCCCC4)CCN(CCCN4CCCCC4)C2C(c2ccccc2)C3)cc1 (racemic),8

# Test system: Plasmodium berghei
# Experiment: Antimalarial activity against Plasmodium berghei ANKA infected in albino mice (Mus musculus) assessed as reduction in parasitemia at 30 mg/kg, intraperitoneal for 4 days
# Assay type: functional
# Parameters: scale not given: the % may be the effect or the level left
# Details: not given
row,SMILES,Activity [%]
1,O=C(CCN1CCCCC1)N1CCC2(N3CCCC3)CC(c3ccccc3)C1C(c1ccccc1)C2 (racemic),27.2
2,CCN1CCN(CCN2CCC3(N4CCCC4)CC(c4ccccc4)C2C(c2ccccc2)C3)CC1 (racemic),8.9
3,CCN1CCN(CCN2CCC3(N4CCCCC4)CC(c4ccccc4)C2C(c2ccccc2)C3)CC1 (racemic),0
4,c1ccc(C2CC3(N4CCCC4)CCN(CCCN4CCCCC4)C2C(c2ccccc2)C3)cc1 (racemic),31

# Test system: Mus musculus
# Experiment: Toxicity in albino mouse assessed as mean survival days at 10 mg/kg, ip for 4 days
# Assay type: organism-based
# Parameters: dose 10 mg/kg, route intraperitoneal
# Details: in vivo, 96 h
row,SMILES,MSD [days]
1,CCN(CC)CCCC(C)Nc1ccnc2cc(Cl)ccc12 (stereo unspecified) [CHLOROQUINE],20

# Test system: L6
# Experiment: Cytotoxicity against rat L6 cells
# Assay type: cell-based
# Details: not given
row,SMILES,IC50 [nM]
1,O=C(CN1CCCC1)NC1CC2(N3CCCCC3)CC(c3ccccc3)C1C(c1ccccc1)C2 (stereo unspecified),21000
2,CN(C)C12CCN(C(=O)CCN3CCCCC3)C(C(c3ccccc3)C1)C(c1ccccc1)C2 (racemic),128000
3,O=C(CCN1CCCCC1)N1CCC2(N3CCCC3)CC(c3ccccc3)C1C(c1ccccc1)C2 (racemic),108000
4,O=C(CCN1CCCCC1)N1CCC2(N3CCCCC3)CC(c3ccccc3)C1C(c1ccccc1)C2 (racemic),63900
5,CCN1CCN(CCN2CCC3(N(C)C)CC(c4ccccc4)C2C(c2ccccc2)C3)CC1 (racemic),58000
6,CCN1CCN(CCN2CCC3(N4CCCC4)CC(c4ccccc4)C2C(c2ccccc2)C3)CC1 (racemic),53600
7,CCN1CCN(CCN2CCC3(N4CCCCC4)CC(c4ccccc4)C2C(c2ccccc2)C3)CC1 (racemic),67500
8,CN(C)C12CCN(CCCN3CCCCC3)C(C(c3ccccc3)C1)C(c1ccccc1)C2 (racemic),58400
9,c1ccc(C2CC3(N4CCCC4)CCN(CCCN4CCCCC4)C2C(c2ccccc2)C3)cc1 (racemic),28700
10,c1ccc(C2CC3(N4CCCCC4)CCN(CCCN4CCCCC4)C2C(c2ccccc2)C3)cc1 (racemic),138000

# Test system: Mus musculus
# Experiment: Toxicity in albino mouse assessed as mean survival days at 30 mg/kg, ip for 4 days
# Assay type: organism-based
# Parameters: dose 30 mg/kg, route intraperitoneal
# Details: in vivo, 96 h
row,SMILES,MSD [days]
1,O=C(CCN1CCCCC1)N1CCC2(N3CCCC3)CC(c3ccccc3)C1C(c1ccccc1)C2 (racemic),6.7
2,CCN1CCN(CCN2CCC3(N4CCCC4)CC(c4ccccc4)C2C(c2ccccc2)C3)CC1 (racemic),7
3,CCN1CCN(CCN2CCC3(N4CCCCC4)CC(c4ccccc4)C2C(c2ccccc2)C3)CC1 (racemic),7
4,c1ccc(C2CC3(N4CCCC4)CCN(CCCN4CCCCC4)C2C(c2ccccc2)C3)cc1 (racemic),7

# Test system: Plasmodium berghei
# Experiment: Antimalarial activity against Plasmodium berghei ANKA infected in albino mice (Mus musculus) assessed as reduction in parasitemia at 50 mg/kg, intraperitoneal for 4 days
# Assay type: functional
# Parameters: scale not given: the % may be the effect or the level left
# Details: not given
row,SMILES,Activity [%]
1,O=C(CCN1CCCCC1)N1CCC2(N3CCCCC3)CC(c3ccccc3)C1C(c1ccccc1)C2 (racemic),36.5
2,c1ccc(C2CC3(N4CCCCC4)CCN(CCCN4CCCCC4)C2C(c2ccccc2)C3)cc1 (racemic),30.4

# Test system: not listed separately
# Experiment: Selectivity index, ratio of IC50 for rat L6 cells to IC50 for Plasmodium falciparum K1
# Assay type: toxicity, cell-based
# Details: read-out: Ratio IC50
row,SMILES,selectivity ratio
1,O=C(CN1CCCC1)NC1CC2(N3CCCCC3)CC(c3ccccc3)C1C(c1ccccc1)C2 (stereo unspecified),191
2,CN(C)C12CCN(CCN3CCCC3)C(C(c3ccccc3)C1)C(c1ccccc1)C2 (stereo unspecified),136
3,c1ccc(C2CC3(N4CCCC4)CCN(CCN4CCCC4)C2C(c2ccccc2)C3)cc1 (stereo unspecified),116
4,CN(C)C12CCN(C(=O)CCN3CCCCC3)C(C(c3ccccc3)C1)C(c1ccccc1)C2 (racemic),120
5,O=C(CCN1CCCCC1)N1CCC2(N3CCCC3)CC(c3ccccc3)C1C(c1ccccc1)C2 (racemic),300
6,O=C(CCN1CCCCC1)N1CCC2(N3CCCCC3)CC(c3ccccc3)C1C(c1ccccc1)C2 (racemic),336
7,CCN1CCN(CCN2CCC3(N(C)C)CC(c4ccccc4)C2C(c2ccccc2)C3)CC1 (racemic),170
8,CCN1CCN(CCN2CCC3(N4CCCC4)CC(c4ccccc4)C2C(c2ccccc2)C3)CC1 (racemic),298
9,CCN1CCN(CCN2CCC3(N4CCCCC4)CC(c4ccccc4)C2C(c2ccccc2)C3)CC1 (racemic),482
10,CN(C)C12CCN(CCCN3CCCCC3)C(C(c3ccccc3)C1)C(c1ccccc1)C2 (racemic),162
11,c1ccc(C2CC3(N4CCCC4)CCN(CCCN4CCCCC4)C2C(c2ccccc2)C3)cc1 (racemic),287
12,c1ccc(C2CC3(N4CCCCC4)CCN(CCCN4CCCCC4)C2C(c2ccccc2)C3)cc1 (racemic),1150
